In US20160287589A1, “SUBSTITUTED-IMIDAZOPYRIDAZINES” (BAYER PHARMA AKTIENGESELLSCHAFT, priority 2013, published 2016):
Values belong to the compound of their own block, whether it stands above or below them.

Key:
[1] = target: T1, MKNK1 (Homo sapiens, UniProt Q9BUB5, T385D); test: MKNK1 kinase assay (MKNK1 TR-FRET assay); assay type: biochemical; details: 10 μM ATP, 15 min preincubation
T1 construct: GST (N); purchased Carna Biosciences 02-145; host or cells: insect cells (baculovirus expression system)
T1 sequence (Q9BUB5 1-424 isoform Q9BUB5-2 T344D): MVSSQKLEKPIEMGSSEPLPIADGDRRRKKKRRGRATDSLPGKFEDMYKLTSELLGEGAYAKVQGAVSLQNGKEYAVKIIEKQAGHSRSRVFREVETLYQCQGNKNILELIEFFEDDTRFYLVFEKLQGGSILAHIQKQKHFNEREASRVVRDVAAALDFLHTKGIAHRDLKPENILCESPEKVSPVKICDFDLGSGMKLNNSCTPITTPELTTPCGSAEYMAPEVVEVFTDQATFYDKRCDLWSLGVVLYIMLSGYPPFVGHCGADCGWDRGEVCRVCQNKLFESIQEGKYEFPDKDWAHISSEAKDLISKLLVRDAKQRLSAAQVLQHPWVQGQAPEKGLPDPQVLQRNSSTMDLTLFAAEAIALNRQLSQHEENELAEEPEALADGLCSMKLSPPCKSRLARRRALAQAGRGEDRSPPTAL

[2] = target: T1, MKNK1; test: MKNK1 kinase high ATP assay (TR-FRET-based); assay type: biochemical; details: 2 mM ATP, 15 min preincubation
In short: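 GST-tagged full-length human MKNK1 (aa 1-424, T344D) from insect cells, preincubated with compound 15 min at 22 °C. Reaction 30 min at 22 °C with 2 mM ATP and 0.06 μM biotinylated peptide in HEPES pH 7.5, Mg2+, DTT. Phosphopeptide detected by TR-FRET (665/622 ratio) with anti-pS6 (pSer236) antibody; normalised to no-inhibitor and no-enzyme controls.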

Structure (SMILES): C[C@H](N)COc1ccc2ncc(-c3cc4c(N5CCOC[C@H]5C)cccc4o3)n2n1 [II-57, (2S)-1-[(3-{4-[(3R)-3-methylmorpholin-4-yl]-1-benzofuran-2-yl}imidazo[1,2-b]pyridazin-6-yl)oxy]propan-2-amine]
IC50 ([1]; Table 1b): 53.7 nM
IC50 ([2]; Table 2b): 75.1 nM

Structure (SMILES): C[C@H](N)COc1ccc2ncc(-c3cc4c(N5CCOC(C)(C)C5)cccc4o3)n2n1 [II-61, (2S)-1-({3-[4-(2,2-dimethylmorpholin-4-yl)-1-benzofuran-2-yl]imidazo[1,2-b]pyridazin-6-yl}oxy)propan-2-amine]
IC50 ([1]; Table 1b): 23.6 nM
IC50 ([2]; Table 2b): 66.2 nM

Structure (SMILES): C[C@H](N)COc1ccc2ncc(-c3cc4c(N5CCO[C@@H](C)C5)cccc4o3)n2n1 [II-67, (2S)-1-[(3-{4-[(2S)-2-methylmorpholin-4-yl]-1-benzofuran-2-yl}imidazo[1,2-b]pyridazin-6-yl)oxy]propan-2-amine]
IC50 ([1]; Table 1b): 23.5 nM
IC50 ([2]; Table 2b): 56.3 nM

Structure (SMILES): C[C@@H]1CN(c2cccc3oc(-c4cnc5ccc(OC[C@@H](C)N)nn45)cc23)CCO1 [II-69, (2R)-1-[(3-{4-[(2R)-2-methylmorpholin-4-yl]-1-benzofuran-2-yl}imidazo[1,2-b]pyridazin-6-yl)oxy]propan-2-amine]
IC50 ([1]; Table 1b): 29.4 nM
IC50 ([2]; Table 2b): 34.8 nM

Structure (SMILES): C[C@H](N)COc1ccc2ncc(-c3cc4c(N5CCO[C@H](C)C5)cccc4o3)n2n1 [II-70, (2S)-1-[(3-{4-[(2R)-2-methylmorpholin-4-yl]-1-benzofuran-2-yl}imidazo[1,2-b]pyridazin-6-yl)oxy]propan-2-amine]
IC50 ([1]; Table 1b): 41.4 nM
IC50 ([2]; Table 2b): 49.2 nM

Structure (SMILES): C[C@@H]1CN(c2cccc3oc(-c4cnc5ccc(O[C@H]6C[C@H](N)C6)nn45)cc23)CCO1 [II-73, trans-3-[(3-{4-[(2R)-2-methylmorpholin-4-yl]-1-benzofuran-2-yl}imidazo[1,2-b]pyridazin-6-yl)oxy]cyclobutanamine]
IC50 ([1]; Table 1b): 42.4 nM
IC50 ([2]; Table 2b): 47.6 nM

Structure (SMILES): C[C@@H](N)COc1ccc2ncc(-c3cc4c(N5CCOCC5)nccc4o3)n2n1 [III-1, (2R)-1-({3-[4-(Morpholin-4-yl)furo[3,2-c]pyridin-2-yl]imidazo[1,2-b]pyridazin-6-yl}oxy)propan-2-amine]
IC50 ([1]; Table 1c): 8.4 nM
IC50 ([2]; Table 2c): 19.5 nM

Structure (SMILES): C[C@@H](N)COc1ccc2ncc(-c3cc4c(N5CCC(CO)CC5)nccc4o3)n2n1 [III-2, {1-[2-(6-{[(2R)-2-Aminopropyl]oxy}imidazo[1,2-b]pyridazin-3-yl)furo[3,2-c]pyridin-4-yl]piperidin-4-yl}methanol]
IC50 ([1]; Table 1c): 1.8 nM
IC50 ([2]; Table 2c): 1.8 nM

Structure (SMILES): C[C@@H]1COCCN1c1nccc2oc(-c3cnc4ccc(OC[C@@H](C)N)nn34)cc12 [III-3, (2R)-1-[(3-{4-[(3R)-3-Methylmorpholin-4-yl]furo[3,2-c]pyridin-2-yl}imidazo-[1,2-b]pyridazin-6-yl)oxy]propan-2-amine]
IC50 ([1]; Table 1c): 6.7 nM
IC50 ([2]; Table 2c): 11.7 nM

Structure (SMILES): CCN(CCOC)c1nccc2oc(-c3cnc4ccc(OC[C@@H](C)N)nn34)cc12 [III-4, 2-(6-{[(2R)-2-Aminopropyl]oxy}imidazo[1,2-b]pyridazin-3-yl)-N-ethyl-N-(2-methoxyethyl)furo[3,2-c]pyridin-4-amine]
IC50 ([1]; Table 1c): 0.6 nM
IC50 ([2]; Table 2c): 0.4 nM

Structure (SMILES): C[C@H](N)COc1ccc2ncc(-c3cc4c(N5CCOCC5)nccc4o3)n2n1 [III-7, (2S)-1-({3-[4-(Morpholin-4-yl)furo[3,2-c]pyridin-2-yl]imidazo[1,2-b]pyridazin-6-yl}oxy)propan-2-amine]
IC50 ([1]; Table 1c): 11.6 nM
IC50 ([2]; Table 2c): 21.7 nM

Structure (SMILES): C[C@H](N)COc1ccc2ncc(-c3cc4c(N5CCN(C)CC5)nccc4o3)n2n1 [III-8, (2S)-1-({3-[4-(4-Methylpiperazin-1-yl)furo[3,2-c]pyridin-2-yl]imidazo[1,2-b]pyridazin-6-yl}oxy)propan-2-amine]
IC50 ([1]; Table 1c): 7.2 nM
IC50 ([2]; Table 2c): 16.3 nM

Structure (SMILES): C[C@H](N)COc1ccc2ncc(-c3cc4c(N5CCCCC5)nccc4o3)n2n1 [III-9, (2S)-1-({3-[4-(Piperidin-1-yl)furo[3,2-c]pyridin-2-yl]imidazo[1,2-b]pyridazin-6-yl}oxy)propan-2-amine]
IC50 ([1]; Table 1c): 10.6 nM
IC50 ([2]; Table 2c): 20.4 nM

Structure (SMILES): C[C@H](N)COc1ccc2ncc(-c3cc4c(N5CCCC5)nccc4o3)n2n1 [III-10, (2S)-1-({3-[4-(Pyrrolidin-1-yl)furo[3,2-c]pyridin-2-yl]imidazo[1,2-b]pyridazin-6-yl}oxy)propan-2-amine]
IC50 ([1]; Table 1c): 15.4 nM
IC50 ([2]; Table 2c): 63.5 nM

Structure (SMILES): C[C@H](N)COc1ccc2ncc(-c3cc4c(N5CC[C@@H](N(C)C)C5)nccc4o3)n2n1 [III-11, (3R)-1-[2-(6-{[(2S)-2-Aminopropyl]oxy}imidazo[1,2-b]pyridazin-3-yl)furo[3,2-c]pyridin-4-yl]-N,N-dimethylpyrrolidin-3-amine]
IC50 ([1]; Table 1c): 2.7 nM
IC50 ([2]; Table 2c): 12.4 nM

Further lines, results first:

IC50 ([1]; Table 1b): 2.8 nM
IC50 ([2]; Table 2b): 50.8 nM
Structure (SMILES): C[C@@H]1COCCN1c1cccc2oc(-c3cnc4ccc(OC[C@@H]5CCC(=O)N5)nn34)cc12 [II-51, (5S)-5-{[(3-{4-[(3R)-3-methylmorpholin-4-yl]-1-benzofuran-2-yl}imidazo[1,2-b]pyridazin-6-yl)oxy]methyl}pyrrolidin-2-one]

IC50 ([1]; Table 1b): 1.1 nM
IC50 ([2]; Table 2b): 1.1 nM
Structure (SMILES): C[C@H]1CN(c2cccc3oc(-c4cnc5ccc(OC[C@H]6CCC(=O)N6)nn45)cc23)CCN1 [II-53, (5R)-5-{[(3-{4-[(3S)-3-methylpiperazin-1-yl]-1-benzofuran-2-yl}imidazo[1,2-b]pyridazin-6-yl)oxy]methyl}pyrrolidin-2-one]

IC50 ([1]; Table 1b): 2.3 nM
IC50 ([2]; Table 2b): 2.4 nM
Structure (SMILES): CC1(C)CN(c2cccc3oc(-c4cnc5ccc(OCC(F)(F)F)nn45)cc23)CCN1 [II-54, 3-[4-(3,3-dimethylpiperazin-1-yl)-1-benzofuran-2-yl]-6-(2,2,2-trifluoroethoxy)im-idazo[1,2-b]pyridazine]

IC50 ([1]; Table 1b): 3.5 nM
IC50 ([2]; Table 2b): 1.4 nM
Structure (SMILES): CC1(C)CN(c2cccc3oc(-c4cnc5ccc(OCCCS(C)(=O)=O)nn45)cc23)CCN1 [II-55, 3-[4-(3,3-dimethylpiperazin-1-yl)-1-benzofuran-2-yl]-6-[3-(methylsulfonyl)propoxy]im-idazo[l,2-b]pyridazine]

IC50 ([1]; Table 1b): 5.4 nM
IC50 ([2]; Table 2b): 3.1 nM
Structure (SMILES): FC(F)(F)COc1ccc2ncc(-c3cc4c(N5CCNCC5)cccc4o3)n2n1 [II-56, 3-[4-(piperazin-1-yl)-1-benzofuran-2-yl]-6-(2,2,2-trifluoroethoxy)im-idazo[1,2-b]pyridazine]

IC50 ([1]; Table 1b): 2.6 nM
IC50 ([2]; Table 2b): 1.4 nM
Structure (SMILES): C[C@H]1CNCCN1c1cccc2oc(-c3cnc4ccc(OCCCS(C)(=O)=O)nn34)cc12 [II-58, 3-{4-[(2S)-2-methylpiperazin-1-yl]-1-benzofuran-2-yl}-6-[3-(methylsulfonyl)propoxy]im-idazo[1,2-b]pyridazine]

IC50 ([1]; Table 1b): 6.4 nM
IC50 ([2]; Table 2b): 2 nM
Structure (SMILES): C[C@@H]1CN(c2cccc3oc(-c4cnc5ccc(OCC(F)(F)F)nn45)cc23)CCN1 [II-59, 3-{4-[(3R)-3-methylpiperazin-1-yl]-1-benzofuran-2-yl}-6-(2,2,2-trifluoroethoxy)im-idazo[1,2-b]pyridazine]

IC50 ([1]; Table 1b): 15.2 nM
IC50 ([2]; Table 2b): 39.5 nM
Structure (SMILES): CC1(C)CN(c2cccc3oc(-c4cnc5ccc(OC[C@@H]6CCC(=O)N6)nn45)cc23)CCO1 [II-63, (5S)-5-[({3-[4-(2,2-dimethylmorpholin-4-yl)-1-benzofuran-2-yl]imidazo[1,2-b]pyridazin-6-yl}oxy)methyl]pyrrolidin-2-one]

IC50 ([1]; Table 1b): 0.9 nM
IC50 ([2]; Table 2b): 1.3 nM
Structure (SMILES): C[C@@H]1CNCCN1c1cccc2oc(-c3cnc4ccc(OC[C@H]5CCC(=O)N5)nn34)cc12 [II-65, (5R)-5-{[(3-{4-[(2R)-2-methylpiperazin-1-yl]-1-benzofuran-2-yl}imidazo[1,2-b]pyridazin-6-yl)oxy]methyl}pyrrolidin-2-one]

IC50 ([1]; Table 1b): 23.2 nM
IC50 ([2]; Table 2b): 30.4 nM
Structure (SMILES): C[C@H]1CN(c2cccc3oc(-c4cnc5ccc(OC[C@@H]6CCC(=O)N6)nn45)cc23)CCO1 [II-68, (5S)-5-{[(3-{4-[(2S)-2-methylmorpholin-4-yl]-1-benzofuran-2-yl}imidazo[1,2-b]pyridazin-6-yl)oxy]methyl}pyrrolidin-2-one]

IC50 ([1]; Table 1b): 6.5 nM
IC50 ([2]; Table 2b): 6.1 nM
Structure (SMILES): C[C@@H]1CN(c2cccc3oc(-c4cnc5ccc(OC[C@H]6CCC(=O)N6)nn45)cc23)CCO1 [II-71, (5R)-5-{[(3-{4-[(2R)-2-methylmorpholin-4-yl]-1-benzofuran-2-yl}imidazo[1,2-b]pyridazin-6-yl)oxy]methyl}pyrrolidin-2-one]

IC50 ([1]; Table 1b): 15.7 nM
IC50 ([2]; Table 2b): 33 nM
Structure (SMILES): C[C@@H]1CN(c2cccc3oc(-c4cnc5ccc(OC[C@@H]6CCC(=O)N6)nn45)cc23)CCO1 [II-72, (5S)-5-{[(3-{4-[(2R)-2-methylmorpholin-4-yl]-1-benzofuran-2-yl}imidazo[1,2-b]pyridazin-6-yl)oxy]methyl}pyrrolidin-2-one]

IC50 ([1]; Table 1b): 4.1 nM
IC50 ([2]; Table 2b): 11.2 nM
Structure (SMILES): CC1(C)CN(c2cccc3oc(-c4cnc5ccc(OC[C@H]6CCC(=O)N6)nn45)cc23)CCO1 [II-74, (5R)-5-[({3-[4-(2,2-dimethylmorpholin-4-yl)-1-benzofuran-2-yl]imidazo[1,2-b]pyridazin-6-yl}oxy)methyl]pyrrolidin-2-one]

IC50 ([1]; Table 1b): 23 nM
IC50 ([2]; Table 2b): 25.7 nM
Structure (SMILES): C[C@@H](N)COc1ccc2ncc(-c3cc4c(N5CCOC[C@@H]5C)cccc4o3)n2n1 [II-75, (2R)-1-[(3-{4-[(3S)-3-methylmorpholin-4-yl]-1-benzofuran-2-yl}imidazo[1,2-b]pyridazin-6-yl)oxy]propan-2-amine]

IC50 ([1]; Table 1b): 6.9 nM
IC50 ([2]; Table 2b): 18.4 nM
Structure (SMILES): C[C@@H](N)COc1ccc2ncc(-c3cc4c(N5CCO[C@@H](C)C5)cccc4o3)n2n1 [II-76, (2R)-1-[(3-{4-[(2S)-2-methylmorpholin-4-yl]-1-benzofuran-2-yl}imidazo[1,2-b]pyridazin-6-yl)oxy]propan-2-amine]
